Results as given in ChEMBL document CHEMBL1122197, “Pyridoquinoxaline N-oxides. 1. A new class of antitrichomonal agents” (1982).

Experiments:
Tritrichomonas foetus [1] = test: Tested for anti-trichomonal activity in Tritrichomonas foetus, expressed as % reduction in the severity of peritoneal cavity infection at the dose of 12.50 mg/kg; conditions: dose 12.5 mg/kg
Tritrichomonas foetus [2] = test: Tested for anti-trichomonal activity in Tritrichomonas foetus, expressed as % reduction in the severity of peritoneal cavity infection at the dose of 25 mg/kg
Tritrichomonas foetus [3] = test: Tested for anti-trichomonal activity in Tritrichomonas foetus, expressed as % reduction in the severity of peritoneal cavity infection at the dose of 50 mg/kg

SMILES | Reduction (Tritrichomonas foetus [1]) [%] | Reduction (Tritrichomonas foetus [2]) [%] | Reduction (Tritrichomonas foetus [3]) [%]
Cn1c(=N)ccc2c1nc1ccccc1[n+]2[O-] | 100 | 97 | 98
N=c1ccc2c(nc3ccccc3[n+]2[O-])n1C1CCCCC1 | 21 | 96 | –
N=c1ccc2c(nc3ccccc3[n+]2[O-])n1Cc1ccncc1 | 18 | 81 | 95
C=CCn1c(=N)ccc2c1nc1ccccc1[n+]2[O-] | – | 38 | –
COC(Cn1c(=N)ccc2c1nc1ccccc1[n+]2[O-])OC | – | 25 | –
Cn1c(=N)ccc2nc3ccccc3nc21 | 34 | 75 | 98
CCOCCn1c(=N)ccc2c1nc1ccccc1[n+]2[O-] | – | – | 9
CCn1c(=N)ccc2nc3ccccc3nc21 | 0 | 89 | –
Cn1c(=O)ccc2nc3ccccc3nc21 | – | 18 | –
N=c1ccc2nc3ccccc3nc2n1Cc1ccncc1 | – | – | 15
CCCn1c(=N)ccc2c1nc1ccccc1[n+]2[O-] | – | – | 0
N=c1ccc2c(nc3ccccc3[n+]2[O-])n1CCO | – | 57 | –
N=c1ccc2c(nc3ccccc3[n+]2[O-])n1Cc1ccccc1 | – | 19 | –
COCCn1c(=N)ccc2c1nc1ccccc1[n+]2[O-] | 0 | 96 | –
Cn1c(=O)ccc2c1nc1ccccc1[n+]2[O-] | – | 23 | –
CCn1c(=N)ccc2c1nc1ccccc1[n+]2[O-] | 0 | 100 | –
